{"source": "patent US11406655B2", "about": "“Once-daily treatment of pulmonary fibrosis” (Galecto Biotech AB, priority 2015, dated 2022)", "key": {"[1]": {"experiment": "First in Human single ascending dose phase I study: safety and tolerability", "assay_type": "in vivo", "description": "(§1) This study was a randomized, double-blind, single center, placebo-controlled, single ascending dose (SAD), phase I study to assess the safety, tolerability, PK (pharmacokinetics) and PD (pharmacodynamics) of the compound of formula I in 36 healthy male volunteers (HV's). 6 dose cohorts of 6 subjects were evaluated using a 4:2 ratio (active:placebo). The compound of formula I was delivered to the lungs of HV's using the RS01 Monodose Dry Powder Inhaler (Plastiape) at the following 6 doses: 0.15 mg, 1.5 mg, 3 mg, 10 mg, 20 mg and 50 mg. The 0.15 mg, 1.5 mg and 3 mg dose was a 3% w/w lactose blend, whereas the 10 mg, 20 mg and 50 mg dose was formulated as neat material. The specific capsule filling weights were 5 mg for the 0.15 mg dose, 50 mg for the 1.5 mg dose, 5 mg for the 10 mg dose and 50 mg for the 50 mg dose. HV's were housed overnight and vital signs, EKG, physical exam, urinalysis and laboratory bloods followed for 14 days. PK blood sampling was taken prior to dosing and then at intervals up to 48 hrs post-dose. Plasma samples for drug concentration measurements were analyzed by the Bioanalytical Unit at Simbec (UK). PK variables were determined using the non-compartmental analysis option in the software WinNONLIN 6.3 from Certara based in Princeton, N.J. 08540 (www.certara.com)."}, "[2]": {"experiment": "First in Human single ascending dose phase I study: plasma pharmacokinetics after inhalation", "assay_type": "in vivo", "description": "as §1"}, "[3]": {"experiment": "GLP toxicokinetic studies, murine intravenous dosing", "assay_type": "in vivo"}, "[4]": {"experiment": "Radioisotope studies of lung deposition in mice", "assay_type": "in vivo"}, "[5]": {"experiment": "Particle size (MMAD) of the dry powder used in the study", "assay_type": "physicochemical", "details": "dry powder of the study in the Experimental section", "description": "When the compound of formula (I) is formulated as a dry powder it may be present in a suitable particle size selected from a mean mass aerodynamic diameter (MMAD) between 0.1 and 20 μm, such as a MMAD between 0.5 and 10 μm, such as between 1 and 5 μm, typically between 2 and 3 μm. In the study described in the Experimental section below the MMAD was measured to 2.5 μm."}, "[6]": {"target": "Galectin-3 (Homo sapiens, UniProt P17931)", "sequence (P17931 whole entry)": "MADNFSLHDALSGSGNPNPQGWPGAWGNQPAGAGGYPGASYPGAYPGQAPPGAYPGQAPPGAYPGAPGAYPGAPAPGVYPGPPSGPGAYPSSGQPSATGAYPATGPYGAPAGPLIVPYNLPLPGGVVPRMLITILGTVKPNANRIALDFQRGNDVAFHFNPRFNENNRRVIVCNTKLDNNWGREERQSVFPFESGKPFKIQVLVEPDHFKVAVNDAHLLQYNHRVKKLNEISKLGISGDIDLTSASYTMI", "details": "3 mg inhaled dose; from Cmax, mouse lung/circulation ratio and ex-vivo data in human derived macrophages"}}}
{"smiles": "OC[C@H]1O[C@@H](S[C@@H]2O[C@H](CO)[C@H](O)[C@H](n3cc(-c4cccc(F)c4)nn3)[C@H]2O)[C@H](O)[C@@H](n2cc(-c3cccc(F)c3)nn2)[C@H]1O", "note": "[compound of formula I, bis (3-deoxy-3-(3-fluorophenyl-1H-1,2,3-triazol-1-yl)-β-D-galactopyranosyl)-sulfane]", "values": [{"measurement": "tolerability", "setting": "[1]; healthy male volunteers, single inhaled dose, all 6 doses (0.15 mg to 50 mg), RS01 dry powder inhaler", "value": "extremely well tolerated"}, {"measurement": "adverse events (severity)", "setting": "[1]; healthy male volunteers, headache, cough and dose-related parageusia (neat blend only), self-limiting", "value": "only mild in nature"}, {"measurement": "changes from baseline in EKG, vital signs, bloods and urinalysis", "setting": "[1]; up to 2 weeks post-dose", "value": "no significant changes from baseline"}, {"measurement": "dose dependence of drug concentrations based on Cmax and AUC", "setting": "[2]; inhaled single ascending doses 0.15-50 mg", "value": "exhibited dose proportionality"}, {"measurement": "Tmax", "setting": "[2]; male, human, inhaled or intranasal, inhaled single dose, independent of dose", "value": "0.8 to 3", "unit": "h"}, {"measurement": "half-life", "setting": "[2]; male, human, inhaled or intranasal, inhaled single dose, read-out: t½ (converted)", "value": 12, "unit": "h"}, {"measurement": "fraction of compound found in the feces", "setting": "[3]", "value": "~90", "unit": "%"}, {"measurement": "concentration in the lung relative to the circulation", "setting": "[4]", "value": "fifty times greater"}, {"measurement": "mean mass aerodynamic diameter (MMAD)", "setting": "[5]", "value": 2.5, "unit": "μm"}, {"measurement": "local concentration in the lung in man in excess of that required to suppress Galectin-3 in lung target cells", "setting": "[6]", "value": 2, "unit": "fold"}]}
